Legend:
SGC7901 cells = assay: MTT assay, photodynamic therapy on SGC7901 cells; format: cell-based, human
Excerpt: (§1) The cells in logarithmic growth phase were collected and inoculated on 24-well culture plates. When reaching 70%-80% confluence, cells were divided randomly into the following groups: control (the parallel control group without photosensitizer and irradiation), irradiation (irradiation treatment alone without photosensitizer); (photosensitizer treatment alone without irradiation), photodynamic treatment (treatment by photosensitizer in combination with irradiation). For the photosensitizer alone treatment group and photodynamic treatment group, an appropriate amount of Photohexer-1 (P-1) or Photohexer-2 (P-2) was respectively added away from light to give a final concentration of 0.8, 1.6, 3.2, 6.4 μM. Each group set 3 replicates. Cells were incubated with the active agent, different treatments were carried out according to the grouping. […] After treatment and digestion of each group of cells, it was inoculated into a 96-well plate at 100 μL/well, and four wells were set for each treatment. MTT assay was performed after 24 h from inoculation: 20 μL MTT solution was added to each well under the condition away from light, and the culture was continued for 4 hours. 150 μL DMSO was added to each well after discarding the supernatant. After 15 min of dissolution, the absorbance value (OD value) was measured using a microplate reader and the relative survival rate of cells was calculated according to the following formula: […]

SW-480 cells = assay: MTT assay, photodynamic therapy on SW-480 cells; format: cell-based, human
Excerpt: as §1

SW-620 cells = assay: MTT assay, photodynamic therapy on SW-620 cells; format: cell-based, human
Excerpt: as §1

MCF-7 cells = assay: MTT assay, photodynamic therapy on MCF-7 cells; format: cell-based, human
Excerpt: as §1

MCF-7/ADR cells = assay: MTT assay, photodynamic therapy on MCF-7/ADR cells; format: cell-based, human
Excerpt: as §1

[1] = Solubility determination in water; format: physicochemical; details: each ml of water; room temperature; read-out: solubility in water (amount dissolved by each ml of water)
Experimental: The solubility of Photohexer-1 and Photohexer-2 in water was determined by conventional methods in the art.

[2] = 0.8 μM alone treatment, without irradiation
[3] = 0.8 μM combined with 2.6 J/cm^2 light irradiation
[4] = 0.8 μM combined with 5.2 J/cm^2 light irradiation
[5] = 0.8 μM combined with 10.4 J/cm^2 light irradiation
[6] = 1.6 μM alone treatment, without irradiation
[7] = 1.6 μM combined with 2.6 J/cm^2 light irradiation
[8] = 1.6 μM combined with 5.2 J/cm^2 light irradiation
[9] = 1.6 μM combined with 10.4 J/cm^2 light irradiation
[10] = 3.2 μM alone treatment, without irradiation
[11] = 3.2 μM combined with 2.6 J/cm^2 light irradiation
[12] = 3.2 μM combined with 5.2 J/cm^2 light irradiation
[13] = 3.2 μM combined with 10.4 J/cm^2 light irradiation
[14] = 6.4 μM alone treatment, without irradiation
[15] = 6.4 μM combined with 2.6 J/cm^2 light irradiation
[16] = 6.4 μM combined with 5.2 J/cm^2 light irradiation
[17] = 6.4 μM combined with 10.4 J/cm^2 light irradiation

`C=CC1=C(C)c2cc3[nH]c(cc4nc(cc5[nH]c(cc1n2)c(C)c5CCC(=O)[O-])C(CCC(=O)[O-])=C4C)c(C)c3C(C)OCCCCCC.[Na+].[Na+]` (stereo not drawn) [Photohexer P-1, 2-(1-hexyloxyethyl)-6,7-bis(propionatesodium)-1,3,5,8-tetramethyl-4-vinylporphyrin] gave a Cell survival rate (SGC7901 cells; [2]) of 100.39 ± 0.20%, a Cell survival rate (SGC7901 cells; [3]) of 90.25 ± 2.16% and a Cell survival rate (SGC7901 cells; [4]) of 92.41 ± 0.63%. The Cell survival rate (SGC7901 cells; [5]) was 92.26 ± 1.16%, the Cell survival rate (SGC7901 cells; [6]) was 99.22 ± 1.37% and the Cell survival rate (SGC7901 cells; [7]) was 91.19 ± 2.89%. The Cell survival rate (SGC7901 cells; [8]) was 92.29 ± 0.15%, the Cell survival rate (SGC7901 cells; [9]) was 89.21 ± 0.24% and the Cell survival rate (SGC7901 cells; [10]) was 95.80 ± 1.59%. For the same compound, the Cell survival rate (SGC7901 cells; [11]) was 88.70 ± 1.24%, the Cell survival rate (SGC7901 cells; [12]) was 85.49 ± 0.99% and the Cell survival rate (SGC7901 cells; [13]) was 77.02 ± 0.04%. For the same compound, the Cell survival rate (SGC7901 cells; [14]) was 89.77 ± 4.99%, the Cell survival rate (SGC7901 cells; [15]) was 77.76 ± 0.22% and the Cell survival rate (SGC7901 cells; [16]) was 69.94 ± 0.56%. For the same compound, the Cell survival rate (SGC7901 cells; [17]) was 38.34 ± 0.13%, the “killing effect of photodynamic therapy” value (SGC7901 cells; drug-dose and light-intensity dependent) was “obvious killing effect” and the Cell survival rate (SW-480 cells; [2]) was 101.14 ± 3.20%. The Cell survival rate (SW-480 cells; [3]) was 99.72 ± 3.16%, the Cell survival rate (SW-480 cells; [4]) was 95.61 ± 3.11% and the Cell survival rate (SW-480 cells; [5]) was 89.28 ± 3.01%. For the same compound, the Cell survival rate (SW-480 cells; [6]) was 100.83 ± 2.47%, the Cell survival rate (SW-480 cells; [7]) was 97.08 ± 2.89% and the Cell survival rate (SW-480 cells; [8]) was 94.55 ± 2.77%. It also gave a Cell survival rate (SW-480 cells; [9]) of 85.85 ± 2.68%, a Cell survival rate (SW-480 cells; [10]) of 98.02 ± 2.59% and a Cell survival rate (SW-480 cells; [11]) of 96.00 ± 2.24%. For the same compound, the Cell survival rate (SW-480 cells; [12]) was 85.27 ± 1.89%, the Cell survival rate (SW-480 cells; [13]) was 65.70 ± 2.01% and the Cell survival rate (SW-480 cells; [14]) was 91.27 ± 1.09%. It also gave a Cell survival rate (SW-480 cells; [15]) of 77.99 ± 1.22%, a Cell survival rate (SW-480 cells; [16]) of 65.38 ± 1.32% and a Cell survival rate (SW-480 cells; [17]) of 57.31 ± 1.03%. For the same compound, the Cell survival rate (SW-620 cells; [2]) was 101.33 ± 3.20%, the Cell survival rate (SW-620 cells; [3]) was 100.74 ± 3.46% and the Cell survival rate (SW-620 cells; [4]) was 99.53 ± 3.71%. For the same compound, the Cell survival rate (SW-620 cells; [5]) was 94.65 ± 4.04%, the Cell survival rate (SW-620 cells; [6]) was 100.99 ± 2.47% and the Cell survival rate (SW-620 cells; [7]) was 96.64 ± 2.79%. For the same compound, the Cell survival rate (SW-620 cells; [8]) was 91.84 ± 2.97%, the Cell survival rate (SW-620 cells; [9]) was 87.51 ± 3.16% and the Cell survival rate (SW-620 cells; [10]) was 98.23 ± 1.59%. The Cell survival rate (SW-620 cells; [11]) was 91.39 ± 2.18%, the Cell survival rate (SW-620 cells; [12]) was 87.50 ± 1.69% and the Cell survival rate (SW-620 cells; [13]) was 82.58 ± 2.31%. The Cell survival rate (SW-620 cells; [14]) was 94.83 ± 1.09%, the Cell survival rate (SW-620 cells; [15]) was 86.70 ± 1.07% and the Cell survival rate (SW-620 cells; [16]) was 75.53 ± 1.03%. The Cell survival rate (SW-620 cells; [17]) was 68.33 ± 1.11%, the “sensitivity compared between P-1 and P-2” value (MCF-7 cells) was “more sensitive than P-2” and the Cell survival rate (MCF-7 cells; [2]) was 102.94 ± 3.04%. It also gave a Cell survival rate (MCF-7 cells; [3]) of 78.02 ± 4.55%, a Cell survival rate (MCF-7 cells; [4]) of 68.03 ± 3.97% and a Cell survival rate (MCF-7 cells; [5]) of 63.99 ± 4.42%. It also gave a Cell survival rate (MCF-7 cells; [6]) of 82.48 ± 2.24%, a Cell survival rate (MCF-7 cells; [7]) of 65.32 ± 2.43% and a Cell survival rate (MCF-7 cells; [8]) of 47.92 ± 2.82%. For the same compound, the Cell survival rate (MCF-7 cells; [9]) was 49.71 ± 3.94%, the Cell survival rate (MCF-7 cells; [10]) was 71.23 ± 1.76% and the Cell survival rate (MCF-7 cells; [11]) was 54.13 ± 2.04%. The Cell survival rate (MCF-7 cells; [12]) was 45.96 ± 1.76%, the Cell survival rate (MCF-7 cells; [13]) was 46.98 ± 2.67% and the Cell survival rate (MCF-7 cells; [14]) was 60.81 ± 1.04%. The Cell survival rate (MCF-7 cells; [15]) was 50.88 ± 1.02%, the Cell survival rate (MCF-7 cells; [16]) was 41.69 ± 1.02% and the Cell survival rate (MCF-7 cells; [17]) was 44.28 ± 1.07%. The “cell toxicity” value (MCF-7/ADR cells) was “significant cell toxicity”, the Cell survival rate (MCF-7/ADR cells; [2]) was 100.36 ± 3.70% and the Cell survival rate (MCF-7/ADR cells; [3]) was 55.89 ± 3.97%. The Cell survival rate (MCF-7/ADR cells; [4]) was 41.47 ± 4.88%, the Cell survival rate (MCF-7/ADR cells; [5]) was 37.45 ± 4.34% and the Cell survival rate (MCF-7/ADR cells; [6]) was 93.95 ± 2.47%. The Cell survival rate (MCF-7/ADR cells; [7]) was 53.43 ± 2.96%, the Cell survival rate (MCF-7/ADR cells; [8]) was 38.42 ± 2.51% and the Cell survival rate (MCF-7/ADR cells; [9]) was 32.58 ± 3.54%. The Cell survival rate (MCF-7/ADR cells; [10]) was 81.01 ± 1.58%, the Cell survival rate (MCF-7/ADR cells; [11]) was 50.99 ± 2.31% and the Cell survival rate (MCF-7/ADR cells; [12]) was 36.95 ± 1.89%. The Cell survival rate (MCF-7/ADR cells; [13]) was 31.79 ± 2.65%, the Cell survival rate (MCF-7/ADR cells; [14]) was 46.84 ± 1.02% and the Cell survival rate (MCF-7/ADR cells; [15]) was 45.48 ± 1.04%. For the same compound, the Cell survival rate (MCF-7/ADR cells; [16]) was 33.47 ± 1.41%, the Cell survival rate (MCF-7/ADR cells; [17]) was 27.27 ± 1.07% and the solubility [1] was ~3300 µg/mL.
